Measured values as given in BigSolDB 2.1.

O=C(O)c1cccc2ccccc12
solubility (mole fraction)
Details | in acetic acid | in ethanol | in ethyl acetate | in isobutanol | in isopropanol | in methanol | in methyl acetate | in n-butanol | in n-propanol
293.15 K | 0.0172 | 0.0282 | 0.0294 | 0.0187 | 0.0251 | 0.0206 | 0.0257 | 0.03 | 0.027
298.15 K | 0.0194 | 0.0311 | 0.0329 | 0.0213 | 0.0284 | 0.0229 | 0.0301 | 0.0344 | 0.0302
303.15 K | 0.0224 | 0.0356 | 0.0374 | 0.0257 | 0.034 | 0.0269 | 0.0335 | 0.0389 | 0.0351
308.15 K | 0.0257 | 0.0402 | 0.0418 | 0.0311 | 0.0401 | 0.0304 | 0.0387 | 0.0444 | 0.0407
313.15 K | 0.0296 | 0.0457 | 0.0472 | 0.0364 | 0.0472 | 0.0351 | 0.043 | 0.0514 | 0.0461
318.15 K | 0.0334 | 0.0513 | 0.0534 | 0.0427 | 0.0544 | 0.0392 | 0.0498 | 0.0605 | 0.0536
323.15 K | 0.0383 | 0.0574 | 0.06 | 0.0502 | 0.0636 | 0.0443 | 0.055 | 0.0684 | 0.0604
328.15 K | 0.0439 | 0.0654 | 0.0673 | 0.0588 | 0.0731 | 0.0496 | 0.0622 | 0.079 | 0.0702
333.15 K | 0.0503 | 0.0738 | 0.0754 | 0.0685 | 0.0852 | 0.0557 | – | 0.0901 | 0.0795
